From patent US12492194B2, “HPK1 inhibitors” (Janssen Pharmaceutica NV, priority 2019, dated 2025) come the findings set out here.

Test [1] deals with T1, full-length human Hpk1 (Homo sapiens, UniProt Q92918).
T1 construct: A recombinant fusion protein consisting of full-length human Hpk1; GST (N)
The test can be described thus: HPK1 kinase assay (ADP Glo Kinase Assay). Type of test: biochemical. Particulars: full-length human GST-Hpk1, ADP Glo, 75 μM ATP; read-out: Hpk1 biochemical (pIC50) (converted). How it is done:
Pharmacological Part HPK1 Kinase Assay
A recombinant fusion protein consisting of full-length human Hpk1 with an N-terminal Glutatione S-transferase (GST) tag was produced in a baculovirus/insect cell expression system. GST-Hpk1 protein was purified from cell lysates by glutathione sepharose affinity chromatography. Kinase inhibition was determined using the ADP Glo™ Kinase Assay kit (Promega, V9101). Test compounds were prepared by serial dilution in dimethyl sulfoxide (DMSO) and 0.1 μl of each dilution was spotted onto a 384-well white Proxiplate (Perkin Elmer, 6008289). 8 μl of kinase assay buffer (40 mM Tris pH 7.5, 2 mM dithiothreitol (DTT), 0.05% Bovine Serum Albumin, 5 mM MgCl2) containing Hpk1 protein was transferred to each well and incubated for 30-45 minutes at room temperature. The enzymatic reaction was started by adding 2 μl of kinase assay buffer containing 75 μM ATP. After 120 minutes, the reaction was stopped by adding 3 μl of ADP Glo™ reagent (Promega, V9101) and incubating 45 minutes at room temperature.
(ADP-Glo turns the ADP formed in a reaction into a luminescent signal.)

Test [2] has as its target Hpk1 (Homo sapiens, UniProt Q92918). The experiment in a line: SLP76 phosphorylation assay (SLP76 pS376 in lysates of HEK293 cells engineered to express Hpk1 and SLP76). Particulars: HEK293 cells expressing Hpk1 and SLP76, 4 hours incubation; read-out: pSLP76 (HEK293) (pIC50) (converted). Type of test: cell-based. As to the method:
SLP76 Phosphorylation Assay
Hpk1 inhibition in cells was determined by detection of SLP76 phosphorylation at S376 in lysates from HEK293 cells engineered to express Hpk1 and SLP76. Serial dilutions of test compounds were prepared in cell culture medium and 20 μl was transferred into each well of a 96-well plate containing HEK293 cells in 180 μl of culture medium. After incubation for 4 hours at 37° C./5% CO2, the culture medium was removed, plates were put on ice and cells washed with cold Minimal Essential Medium before lysing in 90 μl of cold Mammalian Protein Extraction Reagent (Thermo Scientific, 78501) for 30 minutes on ice. The cell lysates were transferred to another 96-well plate, centrifuged 10 minutes at 3000 rcf (4° C.) and 30 μl transferred to a 96-well High-bind plate (MSD, L15XB-3). After coating overnight at 4° C., the cell lysate was removed, wells were washed with base buffer (TBS, 0.2% Tween-20), and blocking solution (base buffer containing 3% MSD blocker A) was added to each well for 1 hour at room temperature. The blocking solution was removed, the wells were washed with base buffer, and detection antibody (SLP76 pS376) was added in 25 μl base buffer containing 1% MSD blocker A to each well. After a 2 h incubation at room temperature, the detection antibody was removed, wells were washed four times with base buffer, 25 μl SULFO-TAG labeled goat anti-rabbit secondary antibody (MSD, R32AB-1) in base buffer containing 1% MSD blocker A was added to each well and left for 1 hour at room temperature. Wells were washed 4 times with base buffer, 150 μl Read Buffer T was added to each well, and the plates were read in a Mesoscale plate reader (MSD). IC50 values were determined by curve-fitting the electrochemiluminescent signals obtained from the lysates of HEK293 cells expressing Hpk1 and SLP76 treated with test compounds at various concentrations minus the signal obtained from HEK293 cells expressing SLP76 only.

T1 sequence (Q92918 whole entry, the tested form may be a part): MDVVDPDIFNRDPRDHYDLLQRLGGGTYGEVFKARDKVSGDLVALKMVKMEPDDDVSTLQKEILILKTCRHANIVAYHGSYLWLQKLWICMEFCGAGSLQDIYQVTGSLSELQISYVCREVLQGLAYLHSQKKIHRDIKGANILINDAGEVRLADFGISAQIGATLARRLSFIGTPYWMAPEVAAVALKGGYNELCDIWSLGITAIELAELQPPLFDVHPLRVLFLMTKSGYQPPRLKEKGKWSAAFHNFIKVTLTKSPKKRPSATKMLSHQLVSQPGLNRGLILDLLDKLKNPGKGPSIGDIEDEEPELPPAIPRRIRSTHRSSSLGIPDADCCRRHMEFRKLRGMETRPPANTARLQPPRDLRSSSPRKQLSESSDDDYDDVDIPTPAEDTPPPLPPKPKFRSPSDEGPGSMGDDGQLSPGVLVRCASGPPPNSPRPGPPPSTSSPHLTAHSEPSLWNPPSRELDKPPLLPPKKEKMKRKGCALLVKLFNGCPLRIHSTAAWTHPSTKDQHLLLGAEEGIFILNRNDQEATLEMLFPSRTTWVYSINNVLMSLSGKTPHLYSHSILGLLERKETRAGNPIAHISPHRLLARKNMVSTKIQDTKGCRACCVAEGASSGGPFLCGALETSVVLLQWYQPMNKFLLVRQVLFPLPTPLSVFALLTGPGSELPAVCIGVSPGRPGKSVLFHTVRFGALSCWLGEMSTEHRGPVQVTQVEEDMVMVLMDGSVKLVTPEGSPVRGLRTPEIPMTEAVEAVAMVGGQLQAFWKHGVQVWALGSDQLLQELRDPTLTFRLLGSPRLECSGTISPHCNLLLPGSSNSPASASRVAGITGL
Hpk1, sequence (Q92918 whole entry): as the sequence (Q92918 whole entry, the tested form may be a part) above

Consider `C[C@H]1CCN[C@@H]1c1cc(-c2cnc(N)c(-c3ccncc3)c2)ccc1C1CCOCC1` (racemic) [Co. 9], for which the IC50 was 42.7 nM in test [1] and 2140 nM in test [2].

`C[C@@H]1CCN[C@@H]1c1cc(-c2cnc(N)c(-c3ccncc3)c2)ccc1C1CCOCC1` (racemic) [Co. 10]: the IC50 in test [1] is 6.61 nM; in test [2], 282 nM.

For `Nc1ncc(-c2ccc(C3CCOCC3)c([C@@H]3CC4(CC4)CN3)c2)cc1-c1ccnc(F)c1` (single isomer, unassigned) [Co. 5a], the IC50 in test [1] is 10.2 nM; in test [2], 776 nM.

As to `Nc1ncc(-c2ccc(C3CCOCC3)c([C@@H]3CC4(CC4)CN3)c2)cc1-c1ccncc1` (single isomer, unassigned) [Co. 8a], the IC50 in test [1] is 6.31 nM; in test [2], 347 nM.

For `Nc1ncc(-c2ccc(C3CCOCC3)c([C@H]3CC4(CC4)CN3)c2)cc1-c1ccncc1` (single isomer, unassigned) [Co. 8b], the IC50 is 135 nM in test [1] and 6920 nM in test [2].

Turning to `Nc1ncc(-c2ccc(C3CCOCC3)c([C@@H]3C[S@+]([O-])CCN3)c2)cc1-c1ccnc(F)c1` (single isomer, unassigned) [Co. 15b], the figures for the IC50 in test [1] and in test [2] were 200 nM and over 10000 nM, respectively.

For the compound `Nc1ncc(-c2ccc(C3CCOCC3)c([C@@H]3C[S@@+]([O-])CCN3)c2)cc1-c1ccnc(F)c1` (single isomer, unassigned) [Co. 15c], the IC50 in test [1] was 631 nM; in test [2], over 10000 nM.

In the case of `Nc1ncc(-c2ccc(C3CCOCC3)c([C@H]3C[S@+]([O-])CCN3)c2)cc1-c1ccnc(F)c1` (single isomer, unassigned) [Co. 15d], the IC50 in test [1] is 6920 nM; in test [2], over 10000 nM.

As to `Nc1ncc(-c2ccc(C3CCOCC3)c([C@H]3CC(F)(F)CN3)c2)cc1-c1ccnc(F)c1` (single isomer, unassigned) [Co. 58], the values for the IC50 in test [1] and in test [2] were 8710 nM and over 10000 nM, respectively.

For the compound `Nc1ncc(-c2ccc(C3CCOCC3)c([C@@H]3CC(F)(F)CN3)c2)cc1-c1ccnc(F)c1` (single isomer, unassigned) [Co. 59], the figures for the IC50 in test [1] and in test [2] were 77.6 nM and 5620 nM, respectively.

Turning to `C[C@H]1COC[C@@H](c2cc(-c3cnc(N)c(-c4ccncc4)c3)ccc2C2CCOCC2)N1` (single isomer, unassigned) [Co. 83a], the IC50 in test [1] is 44.7 nM; in test [2] it was 1350 nM.

`C[C@@H]1COC[C@H](c2cc(-c3cnc(N)c(-c4ccncc4)c3)ccc2C2CCOCC2)N1` (single isomer, unassigned) [Co. 83b]: the IC50 in test [1] is 5750 nM.

As to `Nc1ncc(-c2ccc(C3CCOCC3)c([C@@H]3COCCCN3)c2)cc1-c1ccncc1` (single isomer, unassigned) [Co. 93a], the IC50 in test [1] is 162 nM; in test [2], 4570 nM.

For `Nc1ncc(-c2ccc(C3CCOCC3)c([C@H]3COCCCN3)c2)cc1-c1ccncc1` (single isomer, unassigned) [Co. 93b], the IC50 in test [1] was 18.6 nM; in test [2], 1230 nM.

In the case of `Nc1ncc(-c2ccc([C@H]3CCOC3)c([C@@H]3CCCN3)c2)cc1-c1ccnc(F)c1` (single isomer, unassigned) [Co. 101], the figures for the IC50 in test [1] and in test [2] were 3.72 nM and 692 nM, respectively.

Consider `Nc1ncc(-c2ccc(C3CCOCC3)c([C@@H]3CSCCN3)c2)cc1-c1ccnc(F)c1` (single isomer, unassigned) [Co. 103a], for which the IC50 in test [1] is 7.76 nM; in test [2], 1950 nM.

`Nc1ncc(-c2ccc(C3CCOCC3)c([C@H]3CSCCN3)c2)cc1-c1ccnc(F)c1` (single isomer, unassigned) [Co. 103b]: the IC50 was 603 nM in test [1] and over 10000 nM in test [2].

As for `Nc1ncc(-c2ccc(C3CCOCC3)c([C@H]3CC4(CC4)CN3)c2)cc1-c1ccnc(F)c1` (single isomer, unassigned) [Compound 5b], the IC50 in test [1] is 912 nM.

In the case of `Nc1ncc(-c2ccc(C3CCOCC3)c([C@H]3C[S@@+]([O-])CCN3)c2)cc1-c1ccnc(F)c1` (single isomer, unassigned) [Compound 15a], the figures for the IC50 in test [1] and in test [2] were 9330 nM and over 10000 nM, respectively.

In the case of `Nc1ncc(-c2ccc(C3CCOCC3)c([C@@H]3CCCN3)c2)cc1-c1ccnc(F)c1` [Co. 1], the IC50 in test [1] was 7.59 nM; in test [2] it was 380 nM.

For the compound `Nc1ncc(-c2ccc(N3CCOCC3)c([C@@H]3CCCN3)c2)cc1-c1ccnc(F)c1` [Co. 2], the IC50 in test [1] was 41.7 nM; in test [2], 871 nM.

As to `Nc1ncc(-c2ccc(C3CCOCC3)c([C@@H]3CCCN3)c2)cc1-c1cncnc1` [Co. 3], the values for the IC50 in test [1] and in test [2] were 53.7 nM and 5620 nM, respectively.

Regarding `Nc1ncc(-c2ccc(C3CCOCC3)c([C@@H]3CCCN3)c2)cc1-c1cccnc1` [Co. 4], the IC50 is 42.7 nM in test [1] and 3720 nM in test [2].

Take `Nc1ncc(-c2ccc(N3CCOCC3)c(C3CCCN3)n2)cc1-c1ccncc1` (centres unmarked) [Co. 11]: the IC50 in test [1] is 35.5 nM; in test [2], 5010 nM.

For the compound `Nc1ncc(-c2cnc(N3CCOCC3)c(C3CCCN3)c2)cc1-c1ccncc1` (centres unmarked) [Co. 12], the IC50 in test [1] was 112 nM; in test [2], 7410 nM.

On to `Nc1ncc(-c2ccc(C3CCOCC3)c(-c3cnc[nH]3)c2)cc1-c1ccncc1` [Co. 13], for which the IC50 was 186 nM in test [1] and 8910 nM in test [2].

Take `Nc1ncc(-c2ccc(N3CCOCC3)c(-c3nnc[nH]3)c2)cc1-c1ccncc1` [Co. 14]: the IC50 in test [1] was 832 nM; in test [2], over 10000 nM.

Take `Nc1ncc(-c2ccc(C3CCOCC3)c(-c3cnn[nH]3)c2)cc1-c1ccncc1` [Co. 15]: the figures for the IC50 in test [1] and in test [2] were 575 nM and over 10000 nM, respectively.

For the compound `Nc1ncc(-c2ccc(C3CCOCC3)c([C@@H]3CCCN3)c2)cc1-c1ccnc(Cl)c1` [Co. 17], the IC50 was 15.8 nM in test [1] and 1580 nM in test [2].

As to `Nc1ncc(-c2ccc(C3CCOCC3)c([C@@H]3CCCN3)c2)cc1-c1cnn2c1CCCC2` [Co. 18], the IC50 in test [1] is 17.8 nM; in test [2], 1550 nM.

Take `CS(=O)(=O)n1cc(-c2cc(-c3ccc(C4CCOCC4)c([C@@H]4CCCN4)c3)cnc2N)cn1` [Co. 19]: the IC50 in test [1] is 4.27 nM; in test [2], 977 nM.

Regarding `Nc1ncc(-c2ccc(C3CCOCC3)c([C@@H]3CCCN3)c2)cc1-c1nccs1` [Co. 20], the figures for the IC50 in test [1] and in test [2] were 3.16 nM and 170 nM, respectively.

With `Nc1ncc(-c2ccc(C3CCOCC3)c([C@@H]3CCCN3)c2)cc1-c1cnn(CCO)c1` [Co. 21], the IC50 in test [1] was 18.6 nM; in test [2] it was 6920 nM.

With `CC(C)n1cc(-c2cc(-c3ccc(C4CCOCC4)c([C@@H]4CCCN4)c3)cnc2N)cn1` [Co. 22], the IC50 in test [1] is 2.75 nM; in test [2] it was 339 nM.

`Nc1ncc(-c2ccc(C3CCOCC3)c([C@@H]3CCCN3)c2)cc1-c1cn[nH]c1` [Co. 23]: the figures for the IC50 in test [1] and in test [2] were 1.02 nM and 302 nM, respectively.

In the case of `COc1cnccc1-c1cc(-c2ccc(C3CCOCC3)c([C@@H]3CCCN3)c2)cnc1N` [Co. 24], the IC50 was 13.2 nM in test [1] and 891 nM in test [2].

On to `Nc1ncc(-c2ccc(C3CCOCC3)c([C@@H]3CCCN3)c2)cc1-c1ccncc1` [Co. 25], for which the IC50 is 9.77 nM in test [1] and 427 nM in test [2].

Regarding `Nc1ncc(-c2ccc(C3CCOCC3)c([C@H]3CCCN3)c2)cc1-c1ccncc1` [Co. 25b], the IC50 in test [1] is 955 nM; in test [2], over 10000 nM.

Consider `Nc1ncc(-c2ccc(C3CCOCC3)c([C@@H]3CCCN3)c2)cc1-c1ccncn1` [Co. 26], for which the IC50 was 2.04 nM in test [1] and 245 nM in test [2].

As to `Nc1ncc(-c2ccc(C3CCOCC3)c([C@@H]3CCCN3)c2)cc1-c1ccnc(F)c1F` [Co. 27], the results for the IC50 in test [1] and in test [2] were 5.75 nM and 240 nM, respectively.

For `Cc1cnccc1-c1cc(-c2ccc(C3CCOCC3)c(CN(C)C)c2)cnc1N` [Co. 69], the IC50 in test [1] is 316 nM.

Regarding `Nc1ncc(-c2ccc(C3CCOCC3)c(CN3CCC(F)(F)C3)c2)cc1-c1ccncc1` [Co. 107], in test [1], the IC50 is 832 nM.
